# System: proteasome CT-L activity
# Assay: Proteasome CT-L inhibition in blood of mice one hour after oral dosing
# Type: in vivo
# Conditions: 20 mg/kg PO, one hour post-dosing, blood lysate, substrate LLVY-AMC, relative to vehicle-dosed cohort
# Procedure: Compounds were formulated in 10% PS80/NaCitrate (pH 3) vehicle and administered to mice orally (PO) (3 animals/cohort). One hour post-dosing, the animals were sacrificed and the following tissues harvested: blood, brain, adrenal gland, heart and liver. Whole blood (˜200 μl) was washed twice with PBS and lysed by hypotonic shock (300 μl 50 mM Tris pH 8, 5 mM EDTA). Blood lysates were stored at −80° C. until assayed. Blood lysates were clarified by centrifugation in a microcentrifuge. The CT-L specific activity of proteasome in each lysate was evaluated by determining: a) the protein concentration by modified Bradford assay with bovine gamma globulin as a standard; and b) the rate of cleavage of the fluorogenic proteasome substrate LLVY-AMC. The percent proteasome activity for the analog-treated animals was calculated by dividing of the average specific activity for each analog-dosed cohort by the average specific activity of the vehicle-dosed cohort. Percent proteasome inhibition was calculated by subtracting percent proteasome activity from 100. Equivalents
row,Structure (SMILES),proteasome CT-L inhibition
1,COC[C@H](NC(=O)c1cc(C)on1)C(=O)N[C@H](C(=O)N[C@@H](CC(C)C)C(=O)[C@@]1(C)CO1)C(C)C [Compound 029],> 70%
2,COC[C@H](NC(=O)c1cc(C)on1)C(=O)N[C@@H](Cc1cscn1)C(=O)N[C@@H](CC(C)C)C(=O)[C@@]1(C)CO1 [Compound 039],> 75%
3,COC[C@H](NC(=O)c1cc(C)on1)C(=O)N[C@@H](C)C(=O)N[C@@H](CC(C)C)C(=O)[C@@]1(C)CO1 [Compound 045],> 80%
4,Cc1cc(C(=O)N[C@@H](Cc2ccccn2)C(=O)N[C@@H](Cc2ccccc2)C(=O)N[C@@H](CC(C)C)C(=O)[C@@]2(C)CO2)no1 [Compound 055],> 80%
5,COC[C@H](NC(=O)c1cc(C)on1)C(=O)N[C@@H](COC)C(=O)N[C@@H](CC(C)C)C(=O)[C@@]1(C)CO1 [Compound 075],> 80%
6,COC[C@H](NC(=O)c1ccon1)C(=O)N[C@@H](COC)C(=O)N[C@@H](CC(C)C)C(=O)[C@@]1(C)CO1 [Compound 083],> 80%
7,COC[C@H](NC(=O)c1cc(C)no1)C(=O)N[C@@H](COC)C(=O)N[C@@H](CC(C)C)C(=O)[C@@]1(C)CO1 [Compound 085],> 50%
8,COC[C@H](NC(=O)c1cc(C)on1)C(=O)N[C@@H](COC)C(=O)N[C@@H](Cc1ccccc1)C(=O)[C@@]1(C)CO1 [Compound 088],> 80%
9,COC[C@H](NC(=O)c1cc(C)on1)C(=O)N[C@@H](COC)C(=O)N[C@@H](Cc1ccc(F)cc1)C(=O)[C@@]1(C)CO1 [Compound 091],> 80%

# Same assay, conditions: 40 mg/kg PO, one hour post-dosing, blood lysate, substrate LLVY-AMC, relative to vehicle-dosed cohort
row,Structure (SMILES),proteasome CT-L inhibition
1,COC[C@H](NC(=O)c1cc(C)on1)C(=O)N[C@@H](Cc1ccccc1)C(=O)N[C@@H](CC(C)C)C(=O)[C@@]1(C)CO1 [Compound 010],> 90%
2,CC(C)C[C@H](NC(=O)c1cc(CN2CCOCC2)on1)C(=O)N[C@@H](Cc1ccccc1)C(=O)N[C@@H](CC(C)C)C(=O)[C@@]1(C)CO1 [Compound 023],> 80%
3,CC(C)C[C@H](NC(=O)c1cc(CN2CCOCC2)on1)C(=O)N[C@@H](Cc1cscn1)C(=O)N[C@@H](CC(C)C)C(=O)[C@@]1(C)CO1 [Compound 035],> 90%
4,CC(C)C[C@H](NC(=O)[C@H](Cc1ccccc1)NC(=O)[C@@H](NC(=O)c1cc(CN2CCOCC2)on1)C(C)C)C(=O)[C@@]1(C)CO1 [Compound 061],> 80%
5,COCC[C@H](NC(=O)c1cc(C(C)C)on1)C(=O)N[C@@H](Cc1ccccc1)C(=O)N[C@@H](CC(C)C)C(=O)[C@@]1(C)CO1 [Compound 068],> 70%
